How the values were obtained:
[1] = Dog cassette dosing pharmacokinetics; type: in vivo, beagle dogs; conditions: male, beagle, plasma, IV; for Vd: read-out: Vss; for half-life: read-out: t½ (converted)
In short: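 Cross-over IV/PO cassette study in non-naïve male beagles; IV dose prepared at 0.2 mg/mL in 10% DMA/50% PG/40% HPβCD. Plasma sampled to 24 h and measured by LC/MS/MS. Noncompartmental PK parameters; bioavailability from dose-normalized AUC∞ PO/IV in the same animal.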

[2] = tested on: Rat Cardiac Contractility; experiment: Echocardiography assessment of acute pharmacodynamic effect in rat cardiac contractility (fractional shortening); type: in vivo, Sprague Dawley rats; conditions: oral gavage, plasma concentration vs fractional shortening, 1 and 4 h post-dose
Experimental: Assessment of in vivo cardiac function by echocardiography was performed in male Sprague Dawley rats under isoflurane (1-3%) anesthesia. 2-D M-mode images of the left ventricle were acquired in the parasternal long-axis view before, during, and after administration of compounds. In vivo fractional shortening was determined by M-mode image analysis with the following calculation: ((End diastolic diameter−end systolic diameter)[…] end diastolic diameter×100). Three pre-dose baseline M-Mode images were taken at 1-minute intervals prior to compound administration. Compounds were formulated in a 0.5% hydroxypropyl methylcellulose 2910 (HPMC 2910): 0.1% Tween 80 suspension and delivered as a single dose (5 mL/kg) by oral gavage. At one and four hours post-dose, rats were lightly anesthetized for M-mode echocardiography measurement. Concurrent with echocardiography measurements, blood samples were taken to determine the corresponding compound plasma concentrations. The resulting plasma concentrations were used to estimate the IC50 and IC10 values, which is the concentration at which fractional shortening is 50% and 10% of the pre-dose baseline contractility, respectively.

[3] = biological target: T1, CYP2C9 (Homo sapiens, UniProt P11712); experiment: Time-dependent inhibition of CYP2C9 in human liver microsomes; type: in vitro ADME; conditions: for (% Activity NADPH T0)/(% Activity NADPH T30): fold change; for activity at 30 min, 25 µM / activity at 0 min, 25 µM / activity at 30 min, 50 µM / activity at 0 min, 50 µM: pooled human liver microsomes, human liver microsomes; for activity at 30 min, 25 µM / activity at 30 min, 50 µM: after 30 minutes incubation, read-out: % Activity NADPH T30; for activity at 0 min, 25 µM / activity at 0 min, 50 µM: time zero, read-out: % Activity NADPH T0
T1 construct: Pooled human microsomes and selective CYP probe substrates were used; from tissue; host or cells: pooled human liver microsomes
Experimental: (§1) An assessment of the time-dependent Inhibitory Potential of the test compounds against Principal Human Cytochrome P450 Isozymes using Human Liver Microsomes was also carried out using standard methods (Grimm et al, Drug Metab. Dispos., July; 37(7):1355-70. doi: 10.1124/dmd.109.026716, 2009). Pooled human microsomes and selective CYP probe substrates were used for in vitro assessment of test compounds at 25 and 50 μM as time-dependent inhibitors of […] human hepatic cytochrome P450 isozymes (CYP1A2, 2B6, 2C9, 2C19, 2D6, and 3A4). LC-MS/MS was used to quantify metabolite formation. The inhibition of each P450 enzyme in human liver microsomes was measured as the percentage decrease in the activity of marker metabolite formation as measured by LC-MS/MS compared to non-inhibited controls (=100% activity) at time zero and after 30 minutes incubation. The occurrence of any time dependent inhibition was then expressed as the fold change in enzyme activity at time zero relative to the activity after 30 minutes incubation.

[4] = biological target: T2, CYP2C19 (Homo sapiens, UniProt P33261); experiment: Time-dependent inhibition of CYP2C19 in human liver microsomes; type: in vitro ADME; conditions: for (% Activity NADPH T0)/(% Activity NADPH T30): fold change; for activity at 30 min, 25 µM / activity at 0 min, 25 µM / activity at 30 min, 50 µM / activity at 0 min, 50 µM: pooled human liver microsomes, human liver microsomes; for activity at 30 min, 25 µM / activity at 30 min, 50 µM: after 30 minutes incubation, read-out: % Activity NADPH T30; for activity at 0 min, 25 µM / activity at 0 min, 50 µM: time zero, read-out: % Activity NADPH T0
T2 construct: Pooled human microsomes and selective CYP probe substrates were used; from tissue; host or cells: pooled human liver microsomes
Experimental: as §1

[5] = biological target: T3, CYP2C8 (Homo sapiens, UniProt P10632); experiment: Time-dependent inhibition of CYP2C8 in human liver microsomes; type: in vitro ADME; conditions: for (% Activity NADPH T0)/(% Activity NADPH T30): fold change; for activity at 30 min, 25 µM / activity at 0 min, 25 µM / activity at 30 min, 50 µM / activity at 0 min, 50 µM: pooled human liver microsomes, human liver microsomes; for activity at 30 min, 25 µM / activity at 30 min, 50 µM: after 30 minutes incubation, read-out: % Activity NADPH T30; for activity at 0 min, 25 µM / activity at 0 min, 50 µM: time zero, read-out: % Activity NADPH T0
T3 construct: Pooled human microsomes and selective CYP probe substrates were used; from tissue; host or cells: pooled human liver microsomes
T3 sequence (P10632 1-490): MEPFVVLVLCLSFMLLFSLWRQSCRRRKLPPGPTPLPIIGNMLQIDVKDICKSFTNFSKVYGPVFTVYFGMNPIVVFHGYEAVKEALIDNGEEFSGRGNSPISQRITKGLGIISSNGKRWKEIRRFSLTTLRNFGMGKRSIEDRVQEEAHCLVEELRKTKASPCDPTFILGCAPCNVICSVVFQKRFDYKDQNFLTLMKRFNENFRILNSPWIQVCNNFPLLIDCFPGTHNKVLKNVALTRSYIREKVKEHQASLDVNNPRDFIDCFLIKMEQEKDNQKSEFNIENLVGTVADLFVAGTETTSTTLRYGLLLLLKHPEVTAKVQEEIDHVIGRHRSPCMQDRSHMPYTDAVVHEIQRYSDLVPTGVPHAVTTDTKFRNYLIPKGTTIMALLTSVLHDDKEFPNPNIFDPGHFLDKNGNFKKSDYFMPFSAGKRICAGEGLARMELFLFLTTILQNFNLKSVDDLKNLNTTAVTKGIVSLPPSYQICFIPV
Experimental: as §1

T1 sequence (P11712 whole entry): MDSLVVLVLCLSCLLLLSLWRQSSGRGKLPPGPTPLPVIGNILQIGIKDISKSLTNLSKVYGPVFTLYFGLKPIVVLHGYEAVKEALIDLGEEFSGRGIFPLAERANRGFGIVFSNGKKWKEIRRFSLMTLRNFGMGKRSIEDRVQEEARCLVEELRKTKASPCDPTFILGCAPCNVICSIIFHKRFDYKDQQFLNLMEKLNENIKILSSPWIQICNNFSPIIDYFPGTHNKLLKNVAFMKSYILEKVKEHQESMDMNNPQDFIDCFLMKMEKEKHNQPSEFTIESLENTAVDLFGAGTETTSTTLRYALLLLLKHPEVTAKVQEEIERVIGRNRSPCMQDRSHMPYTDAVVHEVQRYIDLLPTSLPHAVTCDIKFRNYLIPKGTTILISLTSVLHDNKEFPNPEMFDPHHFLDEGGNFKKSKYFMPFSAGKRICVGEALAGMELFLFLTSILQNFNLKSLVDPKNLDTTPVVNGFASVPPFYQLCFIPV
T2 sequence (P33261 whole entry): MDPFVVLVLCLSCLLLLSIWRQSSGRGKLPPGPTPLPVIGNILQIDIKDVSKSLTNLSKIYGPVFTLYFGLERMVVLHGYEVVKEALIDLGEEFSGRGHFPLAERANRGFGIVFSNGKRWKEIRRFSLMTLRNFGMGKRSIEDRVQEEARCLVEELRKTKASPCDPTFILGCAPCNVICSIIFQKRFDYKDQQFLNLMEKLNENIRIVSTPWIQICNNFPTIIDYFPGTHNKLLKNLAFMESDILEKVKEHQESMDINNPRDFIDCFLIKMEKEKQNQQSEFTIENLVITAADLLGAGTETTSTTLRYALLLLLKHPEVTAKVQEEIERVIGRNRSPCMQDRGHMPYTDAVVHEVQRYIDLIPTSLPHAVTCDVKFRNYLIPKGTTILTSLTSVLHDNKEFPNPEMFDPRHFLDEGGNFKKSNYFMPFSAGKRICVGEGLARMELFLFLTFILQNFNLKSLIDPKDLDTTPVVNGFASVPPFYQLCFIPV

| Structure (SMILES) | clearance [1] | Vd [1] | half-life [1] | IC10 [2] | IC50 [2] | (% Activity NADPH T0)/(% Activity NADPH T30) ([3]; CYP2C9, 25 μM) | (% Activity NADPH T0)/(% Activity NADPH T30) ([3]; CYP2C9, 50 μM) | activity at 30 min, 25 µM ([3]; CYP2C9, 25 μM) | activity at 0 min, 25 µM ([3]; CYP2C9, 25 μM) | activity at 30 min, 50 µM ([3]; CYP2C9, 50 μM) | activity at 0 min, 50 µM ([3]; CYP2C9, 50 μM) | (% Activity NADPH T0)/(% Activity NADPH T30) ([4]; CYP2C19, 25 μM) | (% Activity NADPH T0)/(% Activity NADPH T30) ([4]; CYP2C19, 50 μM) | activity at 30 min, 25 µM ([4]; CYP2C19, 25 μM) | activity at 0 min, 25 µM ([4]; CYP2C19, 25 μM) | activity at 30 min, 50 µM ([4]; CYP2C19, 50 μM) | activity at 0 min, 50 µM ([4]; CYP2C19, 50 μM) | (% Activity NADPH T0)/(% Activity NADPH T30) ([5]; CYP2C8, 25 μM) | (% Activity NADPH T0)/(% Activity NADPH T30) ([5]; CYP2C8, 50 μM) | activity at 30 min, 25 µM ([5]; CYP2C8, 25 μM) | also measured |
| --- | --- | --- | --- | --- | --- | --- | --- | --- | --- | --- | --- | --- | --- | --- | --- | --- | --- | --- | --- | --- | --- |
| C[C@H]1CC[C@H](N2CC(=O)N(Cc3ccc(F)c(F)c3)C3(CN(C(N)=O)C3)C2=O)CC1 [Compound 5, 5-(3,4-difluorobenzyl)-8-((1r,4r)-4-methylcyclohexyl)-6,9-dioxo-2,5,8-triazaspiro[3.5]nonane-2-carboxamide] | 9.26 mL/min/kg | 6.17 L/kg | 592 min | 1.17 µM | 4440 nM | 0.8 | 1.0 | 79% | 62% | 64% | 62% | 1.2 | 1.3 | 83% | 101% | 77% | 102% | 1.0 | 2.0 | 88% | activity at 0 min, 25 µM ([5]; CYP2C8, 25 μM): 87%; activity at 30 min, 50 µM ([5]; CYP2C8, 50 μM): 53%; activity at 0 min, 50 µM ([5]; CYP2C8, 50 μM): 104% |
| CC(C)N1CC(=O)N(Cc2ccc(Cl)c(F)c2)C2(CN(c3cccnn3)C2)C1=O [Compound 8, 5-(4-chloro-3-fluorobenzyl)-8-isopropyl-2-(pyridazin-3-yl)-2,5,8-triazaspiro[3.5]nonane-6,9-dione] | 15.6 mL/min/kg | 6.26 L/kg | 340 min | 0.508 µM | 2250 nM | 1.0 | 1.0 | 107% | 104% | 109% | 112% | 0.9 | 1.0 | 99% | 94% | 92% | 93% | 1.0 | 1.0 | 117% | activity at 0 min, 25 µM ([5]; CYP2C8, 25 μM): 117%; activity at 30 min, 50 µM ([5]; CYP2C8, 50 μM): 112%; activity at 0 min, 50 µM ([5]; CYP2C8, 50 μM): 110% |
| CC(C)N1CC(=O)N(Cc2ccc(C(F)(F)F)cc2)C2(CN(c3cccnn3)C2)C1=O [Compound 13, 8-isopropyl-2-(pyridazin-3-yl)-5-(4-(trifluoromethyl)benzyl)-2,5,8-triazaspiro[3.5]nonane-6,9-dione] | 11.5 mL/min/kg | 3.72 L/kg | 250 min | 0.317 µM | 1170 nM | 0.9 | 1.0 | 114% | 107% | 109% | 111% | 1.0 | 0.9 | 108% | 108% | 119% | 113% | 1.2 | 1.0 | 98% | activity at 0 min, 25 µM ([5]; CYP2C8, 25 μM): 116%; activity at 30 min, 50 µM ([5]; CYP2C8, 50 μM): 106%; activity at 0 min, 50 µM ([5]; CYP2C8, 50 μM): 106% |
| C[C@H]1CC[C@H](N2CC(=O)N(Cc3ccc(Cl)cc3)C3(CN(C(N)=O)C3)C2=O)CC1 [Compound 18, 5-(4-chlorobenzyl)-8-((1r,4r)-4-methylcyclohexyl)-6,9-dioxo-2,5,8-triazaspiro[3.5]nonane-2-carboxamide] | 7.07 mL/min/kg | 4.29 L/kg | 545 min | 0.892 µM | 2840 nM | 0.9 | 1.2 | 47% | 44% | 27% | 32% | 1.0 | 1.1 | 99% | 103% | 84% | 91% | 0.7 | 1.3 | 100% | activity at 0 min, 25 µM ([5]; CYP2C8, 25 μM): 65%; activity at 30 min, 50 µM ([5]; CYP2C8, 50 μM): 76%; activity at 0 min, 50 µM ([5]; CYP2C8, 50 μM): 100% |
